Values of other authors, collected in publication PMC6256190 (Biomedical Reports, 2018).

Settings: dry extract of ginger 100 mg to 2 g, 27 healthy American participants; glucuronides were detected

Free compound in plasma: no free
Structure (SMILES): CCCCC[C@H](O)CC(=O)CCc1ccc(O)c(OC)c1 [6-gingerol]
